The values that follow come from patent US10220083B2 (priority 2014, dated 2019).

The test system of experiment [1] is mAb 1H8. Nature of the experiment: Surface plasmon resonance with captured mAb 1H8. In kind it is binding, mouse. Particulars: saccharide 18 at 20 μM, polysaccharides at 10 μg/mL in PBS. Here is the method:
Surface Plasmon Resonance was performed on a Biacore T100 instrument (GE Healthcare). Analysis was performed using the Mouse Antibody Capture Kit and Amine Coupling Kit (GE Healthcare) for immobilization. About 10000 response units (RU) of capture antibody were immobilized. A commercial mouse IgG (cat. no. 026502, Invitrogen, Carlsbad, US) was immobilized as a dummy in a reference cell (about 10000 RU). About 800 RU of mAb 1H8 were captured prior to every run using a mAb concentration of 50 μg/mL. Runs were performed using PBS as a running buffer and a flow rate of 30 μL/min with 60 s association and 120 s dissociation periods, respectively. Polysaccharides were used at a concentration of 10 μg/mL and saccharide 18 at 20 μM in PBS.
A general note: Surface plasmon resonance follows binding to a sensor surface in real time, without labels.

The test system of experiment [2] is human pneumococcal reference serum 007sp (pooled sera of humans immunized with Pneumovax). In kind it is binding.
In a further experiment the test system is mAb 1F1. Format: binding, mouse.
Experiment [3] deals with mAb 1H8. In kind it is binding, mouse.

Each structure is given as a SMILES string.

Consider `NCCO[C@H]1OC(CO)[C@H](O[C@H]2OC(CO)[C@@H](O[C@@H]3OC(CO)[C@@H](O[C@@H]4OC(C(=O)O)[C@@H](O)[C@H](O)C4O)[C@H](O)C3O)[C@H](O)C2O)[C@H](O)C1O` (stereo partly drawn) [saccharide 18, β-D-Glucopyranosyluronic acid-(1→4)β-D-glucoyranosyl-(1→4)-α-D-glucopyranosyl-(1→4)-α-D-galactopyranosyl-(1→1)-(2-amino)ethanol], for which the “recognition by mAb 1H8 (surface plasmon resonance)” value in the experiment with mAb 1H8 [1] is “specifically recognizes”. Further, in experiment [2], the “interaction with the antiserum from human vaccinated with Pneumovax23” value was “Robust interactions” and the “recognition by antiserum from human vaccinated with Pneumovax23 (007sp)” value is “recognized”.

For the compound `NCCO[C@H]1OC(CO)[C@H](O[C@H]2OC(CO)[C@@H](O[C@@H]3OC(CO)[C@@H](O[C@@H]4OC(C(=O)O)[C@@H](O[C@H]5OC(CO)[C@H](O)[C@H](O)C5O)[C@H](O)C4O)[C@H](O)C3O)[C@H](O)C2O)[C@H](O)C1O` (stereo partly drawn) [saccharide 55, α-D-galactopyranosyl-(1→4)-β-D-glucopyranosyluronate-(1→4)-β-D-glucoyranosyl-α-D-glucopyranosyl-(1→4)-α-D-galactopyranosyl-(1→1)-(2-amino)ethanol], in the experiment on mAb 1F1, the “binding of mAb 1F1 after inhibition with native SP8 polysaccharide” value is listed as “abrogated” and the “recognition by mAb 1F1” value is on record as “recognized with similar intensities”. For the same compound, in the experiment with mAb 1H8 [3], the “binding of mAb 1H8 after inhibition with native SP8 polysaccharide” value is “abrogated” and the “recognition by mAb 1H8” value is “recognized with similar intensities”.

With `NCCO[C@H]1OC(CO)[C@H](O[C@H]2OC(CO)[C@@H](O[C@@H]3OC(CO)[C@@H](O[C@@H]4OC(C(=O)O)[C@@H](O[C@H]5OC(CO)[C@H](O[C@H]6OC(CO)[C@@H](O)[C@H](O)C6O)[C@H](O)C5O)[C@H](O)C4O)[C@H](O)C3O)[C@H](O)C2O)[C@H](O)C1O` (stereo partly drawn) [saccharide 57, α-D-glucopyranosyl-(1→4)-α-D-galactopyranosyl-(1→4)-β-D-glucopyranosyluronate-(1→4)-β-D-glucoyranosyl-(1→4)-α-D-glucopyranosyl-(1→4)-α-D-galactopyranosyl-(1→1)-(2-amino)ethanol], in the experiment with mAb 1F1, the “binding of mAb 1F1 after inhibition with native SP8 polysaccharide” value was “abrogated” and the “recognition by mAb 1F1” value is given as “recognized with similar intensities”. Also, in the experiment on mAb 1H8 [3], the “binding of mAb 1H8 after inhibition with native SP8 polysaccharide” value is on record as “abrogated” and the “recognition by mAb 1H8” value was “recognized with similar intensities”.

As to `NCCO[C@H]1OC(CO)[C@H](O[C@H]2OC(CO)[C@@H](O[C@@H]3OC(CO)[C@@H](O[C@@H]4OC(CO)[C@@H](O)[C@H](O)C4O)[C@H](O)C3O)[C@H](O)C2O)[C@H](O)C1O` (stereo partly drawn) [saccharide 60, β-D-Glucopyranosyl-(1→4)β-D-glucoyranosyl-(1→4)-α-D-glucopyranosyl-(1→4)-α-D-galactopyranosyl-(1→1)-(2-amino)ethanol], the “recognition by mAb 1F1” value in the experiment on mAb 1F1 is given as “recognized with similar intensities”. Moreover, the “recognition by mAb 1H8” value with mAb 1H8 [3] is reported as “recognized with similar intensities”.

Regarding `NCCO[C@H]1OC(CO)[C@H](O[C@H]2OC(CO)[C@@H](O[C@@H]3OC(CO)[C@@H](O)[C@H](O)C3O)[C@H](O)C2O)[C@H](O)C1O` (stereo partly drawn) [saccharide 62, β-D-Glucoyranosyl-(1→4)-α-D-glucopyranosyl-(1→4)-α-D-galactopyranosyl-(1→1)-(2-amino)ethanol], the “recognition by mAb 1F1” value in the experiment with mAb 1F1 was “recognized with similar intensities”. Besides, the “recognition by mAb 1H8” value with mAb 1H8 [3] is listed as “recognized with similar intensities”.
